The IC50 is the concentration at which inhibition is half-maximal. The low end stands for higher potency, the high end for lower potency.

Test [1] deals with T1, Sialidase (Clostridium perfringens) (UniProt P10481).
T1 sequence (whole entry): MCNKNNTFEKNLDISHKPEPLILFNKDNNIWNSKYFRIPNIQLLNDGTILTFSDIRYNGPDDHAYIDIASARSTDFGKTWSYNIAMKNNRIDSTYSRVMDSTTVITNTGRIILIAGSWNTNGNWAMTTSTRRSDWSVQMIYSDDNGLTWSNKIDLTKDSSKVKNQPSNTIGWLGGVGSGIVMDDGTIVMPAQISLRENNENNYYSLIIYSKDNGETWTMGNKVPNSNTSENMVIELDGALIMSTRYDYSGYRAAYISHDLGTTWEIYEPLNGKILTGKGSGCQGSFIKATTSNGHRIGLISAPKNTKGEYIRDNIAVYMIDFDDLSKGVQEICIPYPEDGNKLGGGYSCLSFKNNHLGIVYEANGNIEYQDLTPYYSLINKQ
As to the kind of experiment: Inhibition of Clostridium perfringens neuraminidase at 100 ug/mL.

A further test addresses T2, Sialidase (Clostridium perfringens, UniProt P10481).
T2 sequence (P10481 whole entry): T1 sequence (whole entry)
As to the kind of experiment: Inhibition of Clostridium perfringens neuraminidase.

Activity calls are given as the source filed them. No cut-off for these calls is given here.

Turning to `COC(=O)[C@H]1O[C@@H](O[C@H]2[C@H](O)[C@@H](O)[C@H](O[C@H]3CC[C@]4(C)C5=C(CC[C@H]4C3(C)C)[C@]3(C(=O)OC)CC[C@H]([C@H](C)CCC=C(C)C)[C@@]3(C)CC5)O[C@@H]2C(=O)OC)[C@H](O)[C@@H](O[C@@H]2OC[C@H](O)[C@H](O)[C@H]2O)[C@H]1O`, the result in test [1] was inactive.

At Sialidase, `CC(C)=CCC[C@@H](C)[C@H]1CC[C@@]2(C(=O)O)C3=C(CC[C@]12C)[C@@]1(C)CC[C@H](O[C@@H]2O[C@H](C(=O)O)[C@@H](O[C@@H]4O[C@H](C(=O)O)[C@H](O)[C@H](O[C@@H]5OC[C@H](O)[C@H](O)[C@H]5O)[C@H]4O)[C@H](O)[C@H]2O)C(C)(C)[C@@H]1CC3` [NOBILOSIDE] gave an IC50 of 0.489 µM.

Values taken from ChEMBL document CHEMBL1148109, “Nobiloside, a new neuraminidase inhibitory triterpenoidal saponin from the marine sponge Erylus nobilis” (J Nat Prod, 2002).
